Measured values: a melting point compilation (Tetko et al.; mined from patent text by program, amines drawn as free bases though some values may be those of a salt)

First: CC(CN(C(=O)c1ccco1)c1c(C)cccc1C)=NO
Second: Cc1ncoc1C(C)(O)c1ccccc1 (stereo unspecified)
The melting point of the first is higher: 155 to 156 °C for the first, 102 to 104 °C for the second.

First: CC(C)C(NC(=O)c1ccc(C(=O)NCC(=O)O)cc1)C(=O)N1CCCC1C(=O)NC(C(=O)C(F)(F)F)C(C)C (mixture of isomers)
Second: COC(=O)C1CC2(CN1C(=O)CN(C)CC(=O)C(Cc1ccccc1)NC(=O)c1ccccc1)SCCS2 (stereo unspecified)
The melting point of the first is higher: 99 to 103 °C for the first, 60 to 62 °C for the second.

First: COc1cc(-c2cc(=O)c3ccccc3o2)cc([N+](=O)[O-])c1OC
Second: Cc1ccc2[nH]c(-c3ccccc3)cc(=O)c2c1
The melting point of the first is lower: 216 to 217 °C for the first, 290 to 292 °C for the second.

First: CC1(S(=O)(=O)c2ccccc2)CCc2nc(-c3ccccc3)[nH]c(=O)c2C1 (stereo unspecified)
Second: O=C(O)CCCCCCCn1cc(-c2ccccc2)c(-c2ccccc2)nc1=O
The melting point of the first is higher: > 250 °C for the first, 121 to 123 °C for the second.

Compared with `Cc1cccc(-c2nc3cccnn3c2-c2ccnc(NCCN3CCCCC3)c2)c1`, `CCc1cc2c(cc1Cl)=CCc1cccnc1C=2C1CCN(C(=O)Cc2cccnc2)CC1` is lower in melting point: 143 to 144 °C for the first, 67.2 to 69.8 °C for the second.

Compared with `CCCCCc1c(CO)nc(C(C)C)c(CO)c1-c1ccc(F)cc1`, `CCCOc1ccccc1-c1nc2c(CCCCc3ccccc3)cccc2c(=O)[nH]1` is lower in melting point: 135 to 136 °C for the first, 82 °C for the second.

First: Cc1cc(O)c(SCc2ccc(Cl)cc2)c(=O)o1
Second: O=C(Cc1ccc(-c2ccc(F)cc2F)c(F)c1)NO
The melting point of the first is lower: 139 to 141 °C for the first, 149 to 150 °C for the second.

First: CC(C)(C)OC(=O)Cn1c(=O)c(-c2c(Cl)cccc2Cl)cc2cnc(N)nc21
Second: COc1cc(OC)n2nc(S(=O)(=O)Nc3c(Cl)cccc3Cl)nc2n1
The melting point of the first is lower: 171 to 173 °C for the first, 232 to 234 °C for the second.

Compared with `COCCc1nc2c(N)nc3ccccc3c2n1CCOCCNC(=O)N1CCOCC1`, `Cc1nc2c(N)nc3cccnc3c2n1CC(C)C` is higher in melting point: 164 to 166 °C for the first, 228 to 230 °C for the second.

First: Cc1cc(C(F)(F)F)cnc1O
Second: CSc1ccc(CCl)cc1C(F)(F)F
The melting point of the first is higher: 141 to 143 °C for the first, 65 to 66 °C for the second.

Compared with `COc1cccc(N(C)C(=S)Oc2ccc3c(c2)CCCC3)n1`, `CN(C(=S)Oc1ccc(Cl)c(C(C)(C)C)c1)c1ccccc1` is lower in melting point: 99 to 100 °C for the first, 65 to 67 °C for the second.

First: CN1C(=O)CC[C@]2(C)c3ccc(-c4cc(C(F)(F)F)cc(C(F)(F)F)c4)cc3CC[C@@H]12
Second: Cn1c(Cc2cccc(C(F)(F)F)c2)nc2c(-c3cccc(C(=O)O)c3)cccc21
The melting point of the first is lower: 110 to 112 °C for the first, 175 to 177 °C for the second.

First: CC(C)(C)CC(=O)Oc1ccc(-c2nn(C3CCCC3)c3c(F)cccc23)cc1
Second: CC(OC(=O)Nc1ccc(-c2ncn(-c3ccc(OC(F)(F)F)cc3)n2)cc1)C1CC1 (stereo unspecified)
The melting point of the first is lower: 74 to 75 °C for the first, 123 to 124 °C for the second.

First: CC(NC(=O)C(C)(C)CCl)c1ccc(Cl)cc1 (stereo unspecified)
Second: CC(C)(O)C(=O)c1ccc(OCC(N)=O)cc1
The melting point of the first is lower: 95 to 96 °C for the first, 139 °C for the second.

Compared with `O=C(NCc1ccccc1)c1cnccc1-c1ccccc1`, `Cc1cc(C)cc(NC(=O)NC2N=C(c3ccccc3)c3ccccc3N(C)C2=O)c1` (stereo unspecified) is higher in melting point: 164 to 166 °C for the first, 267 to 269 °C for the second.

First: CCOC(=O)c1cn(C2CC2)c2cc(Br)c(F)cc2c1=O
Second: CCOC(=O)c1cnc2cc3c(cc2c1Cl)OCO3
The melting point of the first is higher: 251 to 253 °C for the first, 109 to 110 °C for the second.

First: CC(=O)c1ccc(-c2ccc(CC(=O)NC3CCN(Cc4ccc(Cl)c(Cl)c4)CC3)cc2)cc1
Second: COc1ccc(-c2c(C(=O)O)n(Cc3ccc4c(c3)OCO4)c3ccccc23)cc1
The melting point of the first is higher: 184 °C for the first, 109 to 111 °C for the second.

Compared with `CCOC(=O)C(OCC)C(=O)Nc1ccc(Br)cc1` (stereo unspecified), `CC(C)OC(=O)Nc1ccc(N)c([N+](=O)[O-])c1` is higher in melting point: 62 to 64 °C for the first, 173 to 175 °C for the second.

Compared with `COc1cc2ncnc(N3CCC(CN)CC3)c2cc1OC`, `CN(C)CCOc1ccc2nc(C#N)nc(NC3CCCC3)c2c1` is higher in melting point: 144 to 146 °C for the first, 158 to 160 °C for the second.

Compared with `Cc1ccc(S(=O)(=O)N2[C@@H](CCc3nc(C4CC4)no3)CC[C@H]2c2ccc(F)cc2)cc1` (racemic), `CCC[C@H]1CC[C@H](CCc2ccc(-c3ccc(OCC)c(F)c3F)cc2)CC1` is lower in melting point: 129 °C for the first, 73 °C for the second.

Compared with `O=C(NC/C=C\COc1cc(CN2CCCC2)ccn1)c1cn[nH]c1`, `O=c1[nH]c2ncc(-c3ccc(CO)cc3)nc2n1CC1CCCCC1` is higher in melting point: 57 to 61 °C for the first, 275 to 277 °C for the second.

First: CCn1nc(C#Cc2ccccc2)ccc1=O
Second: CCCn1c(=O)cc2n(c1=O)CC(CSc1ccccc1)S2 (stereo unspecified)
The melting point of the first is lower: 74 to 75 °C for the first, 88 to 89 °C for the second.

First: CN1C(=O)CCc2cc(N3C[C@H](C(N)=O)OC3=O)cc(F)c21
Second: Cn1c(C(F)(F)F)cc(=O)n(-c2cc(OC(=O)NC3CCCCC3)c(Cl)cc2F)c1=O
The melting point of the first is higher: 260 to 262 °C for the first, 171 to 173 °C for the second.

Compared with `Cn1ccc2ncnc(Oc3ccc(NC(=O)Nc4cccc(OC(F)(F)F)c4)c(Cl)c3)c21`, `COC(=O)CCC(=O)Nc1cccc(COc2ccc(C(C)=O)c(O)c2)c1` is lower in melting point: 171 to 174 °C for the first, 121 to 123 °C for the second.

First: CCOC(=O)c1cc([N+](=O)[O-])c(Cl)c(S(N)(=O)=O)c1
Second: CCOC(=O)C1=C(C)NC(CSCCC#N)=C(C(=O)OCC)C1c1cccc([N+](=O)[O-])c1 (stereo unspecified)
The melting point of the first is higher: 154 °C for the first, 102 to 104 °C for the second.

First: CCCS(=O)(=O)c1cc([C@H]2CC[C@H](c3cc(OC)c(OC)c(OC)c3)O2)cc(OC)c1OCCSc1ccc(N(C)C)cc1 (relative stereo)
Second: CCCc1nn(-c2ccc(C(F)(F)F)cn2)cc1CCCOc1c(CC)cccc1CC(=O)O
The melting point of the first is lower: 113 to 115 °C for the first, 146 to 147 °C for the second.

First: CNC(=N[N+](=O)[O-])N(Cc1cnc(Cl)s1)C(=O)C(C)C
Second: CCCCSc1nnc(-c2ccc([N+](=O)[O-])cc2)s1
The melting point of the first is lower: 101 to 104 °C for the first, 140 °C for the second.

Compared with `COc1c(C)cc2c(c1C)Cc1c-2[nH]c2c(C)cc(C)cc12`, `Cc1ncn(-c2nccc3[nH]c(=O)ccc23)c1C` is higher in melting point: 210 °C for the first, 256 to 258 °C for the second.

First: COC(=O)[C@H](Cc1cncn1C)NC(=O)C(Cc1cccc2ccccc12)Cc1cccc2ccccc12
Second: COc1ccc2c(c1OCc1ccc(C(=O)O)cc1)CC(C(=O)O)N(C(=O)C(c1ccccc1)c1ccccc1)C2 (racemic)
The melting point of the first is higher: 199 to 200 °C for the first, 190 to 192 °C for the second.

First: CC(C)(C)OC(=O)NCCCCC(=O)NCCC(=O)OCc1ccccc1
Second: Cc1ccc(C(=O)CC(=O)OC(C)(C)C)c(O)c1
The melting point of the first is lower: 69 to 70 °C for the first, 88 to 90 °C for the second.

Compared with `Fc1ccccc1-c1cnc2nncn2n1`, `[O-][N+]1=C(c2ccccc2F)c2cc(Cl)ccc2C=CC1` is lower in melting point: 193 to 196 °C for the first, 138 to 139 °C for the second.

First: Cc1ccc(Cl)c(Nc2ccccc2-c2nnc(S(C)=O)s2)c1Cl (stereo unspecified)
Second: COc1cccc(C(=O)O)c1-c1ccccc1OC(C)C
The melting point of the first is higher: 158 to 160 °C for the first, 139 to 140 °C for the second.

First: O=c1c(Cc2ccccn2)cc2cccnc2n1-c1cccc([N+](=O)[O-])c1
Second: O=S1(=O)N[C@@H](c2cccc(Cl)c2)c2ccccc21
The melting point of the first is higher: 229 to 231 °C for the first, 137 to 138 °C for the second.

Compared with `CN1CCC[C@@H]1Cc1c[nH]c2ccc(C=CC(C)(C)O)cc12`, `COc1ccc(C(=O)c2c(C)n(C)c(=O)n2C)cc1` is lower in melting point: 155 to 158 °C for the first, 109 to 111 °C for the second.

Compared with `Cc1cccc(/C=C/c2nc(COc3ccc(CCCCn4ccnc4CCO)cc3)co2)c1`, `COc1ccc(I)cc1C=O` is higher in melting point: 109 to 111 °C for the first, 140 to 142 °C for the second.

In the case of `O=C1OCCN1c1ccc(F)c([N+](=O)[O-])c1`, the melting point is reported as 135 °C.
